# Test results published in patent publication US20160287672A1, “METHOD OF TREATING CHRONIC HEART FAILURE BY ADMINISTERING RELAXIN” (priority 2008, published 2016).
# Test system: patients with chronic and stable compensated congestive HF
# Experiment: Open-label pilot study of IV recombinant relaxin over 24 hours in chronic heart failure patients
# Type: in vivo, human
# Details: for CI Change from baseline / CO Change from baseline / DBP Change from baseline / HR Change from baseline / PAP Change from baseline / PCWP Change from baseline / PVR Change from baseline / RAP Change from baseline / SBP Change from baseline / SVR Change from baseline: 8 hr, mean ± SD
# Method: Overview. In this open-label study 16 patients with chronic and stable compensated congestive HF were enrolled in three dose-ascending cohorts of recombinant intravenous relaxin (10 to 960 mcg/kg/day) over 24 hours. Relaxin produced increases in cardiac index and stroke volume, and a decrease in pulmonary wedge pressure and NT-pro BNP. It improved markers of renal function, with a small rebound at the highest dose during post-infusion. […] A maximally tolerated dose was determined.
# Design of Study. In this single-center, open-label study, 16 patients who fulfilled inclusion and but not exclusion criteria for chronic and stable compensated congestive HF were sequentially allocated to three ascending cohorts of intravenous (IV) relaxin. Main inclusion criteria included: Age >18 years; NYHA CHF Class II-III without restriction on etiology; left ventricular ejection fraction <35% within 6 months of enrollment; receiving established oral HF therapy expected to remain unchanged during the study period. Main exclusion criteria included: Wedge pressure <16 mmH or CI >2.5 L/min/m2; acute coronary syndrome (within 4 weeks) or recent myocardial infarction or cardiac surgery (within 6 months); AHF requiring intravenous therapy at baseline; systolic blood pressure <85 mmHg; uncorrected valvular heart disease, except for relative mitral and/or tricuspid valve insufficiency; obstructive or restrictive cardiomyopathy; recent episode of ventricular tachycardia or fibrillation (within 4 weeks); recent stroke (within 3 months); creatinine >2.0 mg/dl or serum transaminases and/or total bilirubin >2.5 times the upper limit of normal at screening visit; history of endometriosis.
# The study drug was relaxin (produced by recombinant technology). Recombinant relaxin is identical to the native human hormone H2 relaxin. The dose escalation was as follows: Group A included sequential treatment for 8 hours each with dosages equivalent to 10, 30, and 100 mcg/kg/day. Group B included sequential treatment for 8 hours each with dosages equivalent to 240, 480, and 960 mcg/kg/day. Group C received 24 hours of treatment with 960 mcg/kg/day. Escalation from Group A to Group B was done after examining safety and tolerability of the doses used in Group A. Escalation from Group B to C occurred after the safety and tolerability of the highest dose in Group B (960 mcg/kg/day) was determined.
# Patients were monitored in the intensive care unit for the infusion and post-infusion periods (24 hours either). Hemodynamic measurements, including CI, SVR, PCWP, SBP, RAP, and PVR, were serially performed using Swan-Ganz and arterial catheters. Likewise, clinical and laboratory monitoring was carried out serially throughout infusion and post-infusion and on Day 9 after beginning of infusion. An additional 30-day evaluation for serious adverse events was performed by phone. Endpoints included hemodynamic and neurohumoral (NT-pro BNP levels) changes from baseline, as well as monitoring of vital signs, electrocardiogram, serum chemistry, and hematology parameters throughout the study. For statistical analysis, an error probability of P<0.05 was regarded as significant. Baseline values were compared using the Kruskal-Wallis ANOVA on ranks followed by Dunn's test. Differences over time within the single groups (hemodynamics, renal parameter, and peptide levels) were analyzed with a Friedman Repeated Measures Analysis of Variance on Ranks followed by Dunn's test for comparison against the baseline.
substance,measurement,setting,value
"relaxin: Study drug produced by recombinant technology, identical to the native human hormone H2 relaxin; peptide hormone of A and B chains",creatinine increases post-infusion,"Day 9, after doses equivalent to 960 mcg/kg/day IV",≤ 0.5 mg/dL
same,CI Change from baseline,"Group A, 10 mcg/kg/d IV",0.08 ± 0.3 L/min/m2
same,CO Change from baseline,"Group A, 10 mcg/kg/d IV",0.13 ± 0.5 L/min
same,DBP Change from baseline,"Group A, 10 mcg/kg/d IV",−3.0 ± 4.2 mmHg
same,HR Change from baseline,"Group A, 10 mcg/kg/d IV",3.3 ± 7.6 beats/min
same,PAP Change from baseline,"Group A, 10 mcg/kg/d IV",−3.75 ± 4.1 mmHg
same,PCWP Change from baseline,"Group A, 10 mcg/kg/d IV",−1.8 ± 1.9 mmHg
same,PVR Change from baseline,"Group A, 10 mcg/kg/d IV",−17.3 ± 60.5 dynes * sec/cm5
same,RAP Change from baseline,"Group A, 10 mcg/kg/d IV",0.8 ± 0.9 mmHg
same,SBP Change from baseline,"Group A, 10 mcg/kg/d IV",−12.5 ± 9.3 mmHg
same,SVR Change from baseline,"Group A, 10 mcg/kg/d IV",−143 ± 140 dynes * sec/cm5
same,CI Change from baseline,"Group A, 30 mcg/kg/d IV",0.25 ± 0.4 L/min/m2
same,CO Change from baseline,"Group A, 30 mcg/kg/d IV",0.45 ± 0.6 L/min
same,DBP Change from baseline,"Group A, 30 mcg/kg/d IV",2.5 ± 10.9 mmHg
same,HR Change from baseline,"Group A, 30 mcg/kg/d IV",2.3 ± 16.2 beats/min
same,PAP Change from baseline,"Group A, 30 mcg/kg/d IV",−4.0 ± 5.5 mmHg
same,PCWP Change from baseline,"Group A, 30 mcg/kg/d IV",−5.0 ± 2.6 mmHg
same,PVR Change from baseline,"Group A, 30 mcg/kg/d IV",−0.5 ± 56.7 dynes * sec/cm5
same,RAP Change from baseline,"Group A, 30 mcg/kg/d IV",−1.0 ± 1.8 mmHg
same,SBP Change from baseline,"Group A, 30 mcg/kg/d IV",−5.3 ± 16.8 mmHg
same,SVR Change from baseline,"Group A, 30 mcg/kg/d IV",−171 ± 159 dynes * sec/cm5
same,CI Change from baseline,"Group A, 100 mcg/kg/d IV",0.25 ± 0.2 L/min/m2
same,CO Change from baseline,"Group A, 100 mcg/kg/d IV",0.45 ± 0.2 L/min
same,DBP Change from baseline,"Group A, 100 mcg/kg/d IV",−5.0 ± 3.7 mmHg
same,HR Change from baseline,"Group A, 100 mcg/kg/d IV",0.5 ± 1.3 beats/min
same,PAP Change from baseline,"Group A, 100 mcg/kg/d IV",−4.5 ± 4.2 mmHg
same,PCWP Change from baseline,"Group A, 100 mcg/kg/d IV",−3.5 ± 3.7 mmHg
same,PVR Change from baseline,"Group A, 100 mcg/kg/d IV",−25.3 ± 28.9 dynes * sec/cm5
same,RAP Change from baseline,"Group A, 100 mcg/kg/d IV",−0.8 ± 1.2 mmHg
same,SBP Change from baseline,"Group A, 100 mcg/kg/d IV",−13.0 ± 8.3 mmHg
same,SVR Change from baseline,"Group A, 100 mcg/kg/d IV",−288 ± 92 dynes * sec/cm5
same,time course of NT-pro BNP,Group B,no change
same,CI Change from baseline,"Group B, 240 mcg/kg/d IV",0.28 ± 0.2 L/min/m2
same,CO Change from baseline,"Group B, 240 mcg/kg/d IV",0.62 ± 0.4 L/min
same,DBP Change from baseline,"Group B, 240 mcg/kg/d IV",3.0 ± 6.0 mmHg
same,HR Change from baseline,"Group B, 240 mcg/kg/d IV",1.7 ± 6.7 beats/min
same,PAP Change from baseline,"Group B, 240 mcg/kg/d IV",−1.7 ± 1.6 mmHg
same,PCWP Change from baseline,"Group B, 240 mcg/kg/d IV",−1.5 ± 1.9 mmHg
same,PVR Change from baseline,"Group B, 240 mcg/kg/d IV",−14.8 ± 16.9 dynes * sec/cm5
same,RAP Change from baseline,"Group B, 240 mcg/kg/d IV",0.3 ± 1.4 mmHg
same,SBP Change from baseline,"Group B, 240 mcg/kg/d IV",−2.5 ± 7.4 mmHg
same,SVR Change from baseline,"Group B, 240 mcg/kg/d IV",−150 ± 138 dynes * sec/cm5
same,CI Change from baseline,"Group B, 480 mcg/kg/d IV",0.17 ± 0.3 L/min/m2
same,CO Change from baseline,"Group B, 480 mcg/kg/d IV",0.33 ± 0.7 L/min
same,DBP Change from baseline,"Group B, 480 mcg/kg/d IV",0.0 ± 7.2 mmHg
same,HR Change from baseline,"Group B, 480 mcg/kg/d IV",−1.8 ± 4.5 beats/min
same,PAP Change from baseline,"Group B, 480 mcg/kg/d IV",1.7 ± 2.7 mmHg
same,PCWP Change from baseline,"Group B, 480 mcg/kg/d IV",0.33 ± 2.6 mmHg
same,PVR Change from baseline,"Group B, 480 mcg/kg/d IV",5.5 ± 35.2 dynes * sec/cm5
same,RAP Change from baseline,"Group B, 480 mcg/kg/d IV",0.5 ± 1.1 mmHg
same,SBP Change from baseline,"Group B, 480 mcg/kg/d IV",2.2 ± 5.6 mmHg
same,SVR Change from baseline,"Group B, 480 mcg/kg/d IV",−12 ± 219 dynes * sec/cm5
